Assay [1] concerns Mycobacterium tuberculosis. The experiment in a line: Antitubercular activity against Mycobacterium tuberculosis H37Rv ATCC 27294 in glycerol-alanine-salts medium after 7 days by Microplate Alamar Blue assay. Format: functional. To be noted: H37Rv ATCC 27294, 168 h.
For assay [2], the system named is Mycobacterium tuberculosis. The experiment in a line: Antitubercular activity against Mycobacterium tuberculosis H37Rv ATCC 27294 in 7H12 medium after 7 days by Microplate Alamar Blue assay. Format: functional. To be noted: H37Rv ATCC 27294, 168 h.
The test system of assay [3] is Staphylococcus aureus. The experiment in a line: Antimicrobial activity against Staphylococcus aureus by broth microdilution assay. It counts as functional.
For assay [4], the system named is Candida albicans. The experiment in a line: Antimicrobial activity against Candida albicans by broth microdilution assay. Format: functional.
The test system of assay [5] is Mycobacterium tuberculosis. Briefly: Antitubercular activity against Mycobacterium tuberculosis H37Rv transfected with pFCA-luxAB in 7H12 medium after 10 days by low-oxygen recovery assay. It counts as functional. To be noted: 240 h.
Assay [6] has as its system Mycobacterium kansasii. Briefly: Antimycobacterial activity against Mycobacterium kansasii ATCC 12478 in 7H9 medium after 6 days and 18 hrs after adding resazurin dye/Tween 80 by Microplate Alamar Blue assay. Format: functional.
In assay [7] the test system is Mycobacteroides abscessus. The experiment in a line: Antimycobacterial activity against Mycobacterium abscessus ATCC 19977 in 7H9 medium after 3 days and 4 hrs after adding resazurin dye/Tween 80 by Microplate Alamar Blue assay. It counts as functional. On the technique in general: Resazurin is reduced to fluorescent resorufin, in cell work by metabolically active cells.

Assay [8] concerns Mycobacterium avium. Briefly: Antimycobacterial activity against Mycobacterium avium ATCC 15769 in 7H9 medium after 6 days and 18 hrs after adding resazurin dye/Tween 80 by Microplate Alamar Blue assay. Format: functional.
Assay [9] concerns Mycobacteroides chelonae. The experiment in a line: Antimycobacterial activity against Mycobacterium chelonae ATCC 35752 in 7H9 medium after 3 days and 4 hrs after adding resazurin dye/Tween 80 by Microplate Alamar Blue assay. Format: functional.
In assay [10] the test system is Escherichia coli. Briefly: Antimicrobial activity against Escherichia coli by broth microdilution assay. It counts as functional.
For assay [11], the system named is Vero. The experiment in a line: Cytotoxicity against African green monkey Vero cells assessed as cell viability after 72 hrs by CellTiter 96 assay. Format: cell-based. To be noted: Chlorocebus sabaeus.
Assay [12] concerns Mycobacterium marinum. The experiment in a line: Antimycobacterial activity against Mycobacterium marinum ATCC 927 in 7H9 medium after 5 days and 6 hrs after adding resazurin dye/Tween 80 by Microplate Alamar Blue assay. Format: functional.
Assay [13] has as its system Mycolicibacterium smegmatis. The experiment in a line: Antimycobacterial activity against Mycobacterium smegmatis by broth microdilution assay. It counts as functional. (Broth dilution looks for growth in wells or tubes with falling amounts of substance.)

16 compounds from ChEMBL document CHEMBL3352337, “Scaffold-switching: an exploration of 5,6-fused bicyclic heteroaromatics systems to afford antituberculosis activity akin to the imidazo[1,2-a]pyridine-3-carboxylates” (Bioorg Med Chem Lett, 2014) can be followed below.

Values after ≈ are worked out from the molar mass of the structure shown.

The MIC90 is an inhibitory concentration at the 90% level, which refers to growth in some studies and to a panel of isolates in others. With `Cc1cnc2nc(C)c(C(=O)OCc3ccccc3)n2c1`, the MIC90 stood at 1.4 µM in [1] and 1.4 µM (≈ 0.394 µg/mL) in [2].
A word on the MIC: it is the lowest concentration that inhibits growth of the organism. In general, IC50 refers to the concentration needed to halve the response being measured. As for `Cc1cc(C)n2nc(C(=O)NCc3ccccc3)nc2n1`, the minimum inhibitory concentration (MIC) in assay [3], in assay [4], in [6], in assay [7], in assay [8] and in [9] was above 128 µM in each case. In addition, the MIC in assay [10], in assay [12] and in assay [13] was above 128 µM each time. For the same compound, the MIC90 in assay [5] is above 128 µM; in [1] it was 126 µM; in assay [2] it was above 128 µM. In assay [11], the IC50 was above 128 µM.
Take `Cc1ccc2nc(C)c(C(=O)OCc3ccccc3)n2c1`: the MIC90 is 0.004 µM in assay [1] and 0.004 µM (≈ 0.00112 µg/mL) in [2].
As to `Cc1ccc2nc(C)c(C(=O)NCc3ccccc3)n2n1`, the minimum inhibitory concentration (MIC) in [3], in [4], in [6], in assay [7], in assay [8] and in assay [9] was above 128 µM throughout. Further, the minimal inhibitory concentration (MIC) in assay [10], in [12] and in assay [13] was above 128 µM in each case. Also, the MIC90 in assay [5] is above 128 µM; in assay [1], 63.8 µM; in assay [2] it was above 128 µM. The IC50 in assay [11] was determined as 24.7 µM.
For `NNC(=O)c1ccncc1` [ISONIAZID], the minimum inhibitory concentration (MIC) is 9.1 µM (≈ 1.25 µg/mL) in assay [6]; above 500 µM in [7]; above 500 µM in [8]; above 500 µM in [9]; above 1000 µM in [12].
Turning to `Cc1ccc2nc(C)c(C(=O)NCc3ccccc3)n2c1`, the minimal inhibitory concentration (MIC) in assay [3] is above 128 µM; in assay [4], above 128 µM; in [6], 4 µM (≈ 1.12 µg/mL); in assay [7], above 128 µM; in [8], 15.7 µM (≈ 4.39 µg/mL); in assay [9], 94 µM (≈ 26.3 µg/mL). The minimum inhibitory concentration (MIC) in [10], in [12] and in assay [13] was above 128 µM each time. Besides, the values for the MIC90 in [5], in [1] and in assay [2] were above 128 µM, 0.11 µM and 0.49 µM (≈ 0.137 µg/mL), respectively. In addition, the half-inhibitory concentration (IC50) in assay [11] is above 128 µM.
For `Cc1cn2c(C(=O)OCc3ccccc3)c(C)nc2cn1`, the MIC90 amounted to 2.3 µM in assay [1] and 2.3 µM (≈ 0.647 µg/mL) in assay [2].
`CO[C@H]1/C=C/O[C@@]2(C)Oc3c(C)c(O)c4c(O)c(c(/C=N/N5CCN(C)CC5)c(O)c4c3C2=O)NC(=O)/C(C)=C\C=C\[C@H](C)[C@H](O)[C@@H](C)[C@@H](O)[C@@H](C)[C@H](OC(C)=O)[C@@H]1C` [RIFAMPIN]: the minimum inhibitory concentration (MIC) was 0.03 µM (≈ 0.0247 µg/mL) in [6]; 162 µM (≈ 133 µg/mL) in assay [7]; below 0.78 µM in assay [8]; above 100 µM in [9]; 1.2 µM (≈ 0.988 µg/mL) in [12]. Moreover, the MIC90 in assay [1] amounted to 0.11 µM; in assay [2] it was 0.06 µM (≈ 0.0494 µg/mL).
Regarding `Cc1cc2nc(C)c(C(=O)OCc3ccccc3)n2c(C)n1`, the MIC90 in [1] stood at 1.1 µM; in [2], 1.1 µM (≈ 0.325 µg/mL).
Take `Cc1ccn2c(C)c(C(=O)NCc3ccccc3)nc2c1`: the minimal inhibitory concentration (MIC) in [3], in [4], in assay [6], in [7], in assay [8] and in assay [9] was above 128 µM in each case. Further, the minimal inhibitory concentration (MIC) in assay [10], in assay [12] and in assay [13] was above 128 µM throughout. The results for the MIC90 in assay [5], in [1] and in assay [2] were above 128 µM, 70 µM and above 128 µM, respectively. In [11], the IC50 was above 128 µM.
Turning to `Cc1ccc2c(C(=O)NCc3ccccc3)c(C)[nH]c2c1`, the MIC in assay [3], in assay [4], in [6], in [7], in assay [8] and in assay [9] was above 128 µM throughout. Moreover, the MIC in assay [10], in assay [12] and in assay [13] was above 128 µM in each case. The results for the MIC90 in assay [5], in [1] and in [2] were above 128 µM, 43.8 µM and above 128 µM, respectively. Moreover, the IC50 in [11] was above 128 µM.
As for `COc1c(N2C[C@@H]3CCCN[C@@H]3C2)c(F)cc2c(=O)c(C(=O)O)cn(C3CC3)c12` [MOXIFLOXACIN], the MIC in assay [6] stood at 0.12 µM (≈ 0.0482 µg/mL); in [7], 22.4 µM (≈ 8.99 µg/mL); in [8], 6.1 µM (≈ 2.45 µg/mL); in assay [9] it was 0.24 µM (≈ 0.0963 µg/mL); in assay [12] it was 12.4 µM (≈ 4.98 µg/mL).
For the compound `Cc1ccn2c(C(=O)NCc3ccccc3)nnc2c1`, the minimum inhibitory concentration (MIC) in [3], in assay [4], in [6], in assay [7], in [8] and in [9] was above 128 µM in each case. Also, the MIC in [10], in assay [12] and in assay [13] was above 128 µM each time. Besides, the figures for the MIC90 in [5], in assay [1] and in assay [2] were above 128 µM, 101 µM and above 128 µM, respectively. Moreover, the IC50 in assay [11] was above 128 µM.
`Cc1cnc2nc(C)c(C(=O)NCc3ccccc3)n2c1`: the MIC was above 128 µM in [3]; above 128 µM in assay [4]; 18.7 µM (≈ 5.24 µg/mL) in [6]; above 128 µM in assay [7]; 122 µM (≈ 34.2 µg/mL) in [8]; above 128 µM in assay [9]. Also, the minimal inhibitory concentration (MIC) in assay [10], in assay [12] and in [13] was above 128 µM each time. Besides, the MIC90 is above 128 µM in assay [5], 1.27 µM in [1] and 6.95 µM (≈ 1.95 µg/mL) in assay [2]. Moreover, the IC50 in [11] is above 128 µM.
Turning to `Cc1ccc2c(C(=O)NCc3ccccc3)n[nH]c2c1`, the MIC in [3], in [4], in assay [6], in [7], in assay [8] and in [9] was above 128 µM in each case. Moreover, the minimum inhibitory concentration (MIC) in assay [10], in [12] and in assay [13] was above 128 µM in each case. For the same compound, the MIC90 in assay [5] was above 128 µM; in [1], 40.8 µM; in [2], above 128 µM. In addition, the IC50 in assay [11] was above 128 µM.
Turning to `O=[N+]([O-])c1cn2c(n1)OC[C@@H](OCc1ccc(OC(F)(F)F)cc1)C2` [PRETOMANID], the figures for the MIC90 in assay [5], in [1] and in assay [2] were 4.9 µM (≈ 1.76 µg/mL), 0.12 µM and 0.09 µM (≈ 0.0323 µg/mL), respectively. Besides, the IC50 in assay [11] was above 128 µM.
